One assay concerns Resistant A. baumannii. Description: Synergy of inhibitors with imipenem against resistant A. baumannii. The format is cell-based. From the text: (§1) Tables 2 and 3 show the effectiveness of inhibitory compounds of the invention in killing resistant bacterial strains with imipenem, a β-lactam antibiotic.
The subject of another assay is Resistant P. aeruginosa. The experiment in a line: Synergy of inhibitors with imipenem against resistant P. aeruginosa. It counts as cell-based.
Text: as §1

Assay [1] concerns the target T1, AmpC β-lactamase (Pseudomonas aeruginosa, UniProt P24735). The experiment in a line: Inhibition of representative β-lactamases: AmpC P. aeruginosa in serum. It counts as biochemical.
The target in a further assay is TEM-1 β-lactamase (Escherichia coli, UniProt P62593). Description: Inhibition of representative β-lactamases: TEM-1. To be noted: read-out: IC50 TEM-1 E. Coli. The format is biochemical.
Sequence of TEM-1 β-lactamase (P62593 24-286 limits assumed): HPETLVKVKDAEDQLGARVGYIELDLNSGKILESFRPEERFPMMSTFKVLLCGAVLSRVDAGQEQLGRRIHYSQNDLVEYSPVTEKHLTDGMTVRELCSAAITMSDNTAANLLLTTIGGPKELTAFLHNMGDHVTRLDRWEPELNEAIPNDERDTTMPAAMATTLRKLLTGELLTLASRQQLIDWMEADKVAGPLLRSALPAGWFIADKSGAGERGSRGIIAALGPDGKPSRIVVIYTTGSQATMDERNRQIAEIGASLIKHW
The target in assay [2] is AmpC β-lactamase. As to conditions: read-out: IC50 AmpC A. baumannii. From the text:
Methods for testing the β-lactamase inhibitory bioactivity of compounds are well known in the art. For example, see T. Viswanantha, et al. (2008), “Assays for β-lactamase Activity and Inhibition,”, Methods in Molecular Medicine, 142: New Antibiotic Targets, Chapter 19, pp. 239-260, and references cited therein.

The target in a further assay is OXA-40 β-lactamase (Acinetobacter baumannii, UniProt Q8RLA6). The format is biochemical.
Sequence of OXA-40 β-lactamase (Q8RLA6 22-275): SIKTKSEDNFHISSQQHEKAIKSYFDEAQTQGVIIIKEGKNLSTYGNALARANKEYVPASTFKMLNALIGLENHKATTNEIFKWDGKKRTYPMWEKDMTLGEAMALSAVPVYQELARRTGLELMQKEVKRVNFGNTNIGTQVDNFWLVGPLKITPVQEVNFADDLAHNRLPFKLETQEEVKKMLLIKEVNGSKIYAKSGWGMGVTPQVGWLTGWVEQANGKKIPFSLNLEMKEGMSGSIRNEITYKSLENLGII
In assay [3] the target is T1, AmpC β-lactamase. Description: Inhibition of representative β-lactamases: AmpC P. aeruginosa. It counts as biochemical.

This note sets out measurements from patent US8575144B2, “Beta-lactamase inhibitory compounds” (Southern Methodist University, priority 2008, dated 2013).

pIC50: −log10 of the molar value.

T1 sequence (P24735 27-397): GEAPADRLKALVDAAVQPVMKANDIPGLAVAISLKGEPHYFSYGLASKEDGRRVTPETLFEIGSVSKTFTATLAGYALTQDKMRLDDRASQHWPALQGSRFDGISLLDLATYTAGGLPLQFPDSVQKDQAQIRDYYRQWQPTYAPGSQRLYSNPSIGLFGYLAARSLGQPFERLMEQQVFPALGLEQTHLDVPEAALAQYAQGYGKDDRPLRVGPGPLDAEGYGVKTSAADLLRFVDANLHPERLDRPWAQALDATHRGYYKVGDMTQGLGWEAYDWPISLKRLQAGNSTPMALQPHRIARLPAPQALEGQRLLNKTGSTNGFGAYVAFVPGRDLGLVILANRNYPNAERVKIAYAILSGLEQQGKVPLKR

Usually MIC stands for the lowest concentration found to suppress growth. As to `C[C@@H](O)[C@H]1C(=O)N2C(C(=O)O)=C(SCCN=CN)C[C@H]12` [Imipenem, imipenem, reference compound], the minimum inhibitory concentration (MIC) in the assay on Resistant A. baumannii (Acinetobacter baumannii, imipenem alone, no inhibitor) was found to be 256 µg/mL; with Resistant P. aeruginosa (Pseudomonas aeruginosa, imipenem alone, no inhibitor) it was 20 µg/mL.
As a reminder, the pIC50 is −log10 of the IC50, conventionally taken in molar units. With `C[C@]1(COC(=O)Cc2ccc(O)c(O)c2)[C@H](C(=O)O)N2C(=O)/C(=C/c3ccccn3)[C@H]2S1(=O)=O` [JDB/LN-1-255], the pIC50 against AmpC β-lactamase [1] was 7.09; at TEM-1 β-lactamase, 10.52; on AmpC β-lactamase [2], 8.40; on OXA-40 β-lactamase, 7.96; at AmpC β-lactamase [3] it was 8.22. Further, the “Inhibitor concentration with imipenem at 0.0313 MIC” value in the assay with Resistant A. baumannii (imipenem 8 mg/L (0.0313 MIC)) and in the assay on Resistant P. aeruginosa (imipenem 0.625 mg/L (0.0313 MIC)) was more than 100 µg/mL throughout. The “Inhibitor concentration with imipenem at 0.0625 MIC” value in the assay with Resistant A. baumannii (imipenem 16 mg/L (0.0625 MIC)) and in the assay with Resistant P. aeruginosa (imipenem 1.25 mg/L (0.0625 MIC)) was 100 µg/mL throughout. Also, the “Inhibitor concentration with imipenem at 0.125 MIC” value with Resistant A. baumannii (imipenem 32 mg/L (0.125 MIC)) and in the assay with Resistant P. aeruginosa (imipenem 2.5 mg/L (0.125 MIC)) was 50 µg/mL in each case. Further, the “Inhibitor concentration with imipenem at 0.25 MIC” value with Resistant A. baumannii (imipenem 64 mg/L (0.25 MIC)) and with Resistant P. aeruginosa (imipenem 5 mg/L (0.25 MIC)) was 25 µg/mL each time. Further, the “Inhibitor concentration with imipenem at 0.5 MIC” value in the assay with Resistant A. baumannii (imipenem 128 mg/L (0.5 MIC)) and with Resistant P. aeruginosa (imipenem 10 mg/L (0.5 MIC)) was 6.25 µg/mL in each case.
